The results in this text go back to patent publication US8716312B2, “Inhibitors of diacylglycerol acyltransferase” (Merck Sharp & Dohme Corporation, priority 2008, dated 2014).

The assay addresses T1, human DGAT1 enzyme (Homo sapiens, UniProt O75907).
T1 sequence (O75907 1-488): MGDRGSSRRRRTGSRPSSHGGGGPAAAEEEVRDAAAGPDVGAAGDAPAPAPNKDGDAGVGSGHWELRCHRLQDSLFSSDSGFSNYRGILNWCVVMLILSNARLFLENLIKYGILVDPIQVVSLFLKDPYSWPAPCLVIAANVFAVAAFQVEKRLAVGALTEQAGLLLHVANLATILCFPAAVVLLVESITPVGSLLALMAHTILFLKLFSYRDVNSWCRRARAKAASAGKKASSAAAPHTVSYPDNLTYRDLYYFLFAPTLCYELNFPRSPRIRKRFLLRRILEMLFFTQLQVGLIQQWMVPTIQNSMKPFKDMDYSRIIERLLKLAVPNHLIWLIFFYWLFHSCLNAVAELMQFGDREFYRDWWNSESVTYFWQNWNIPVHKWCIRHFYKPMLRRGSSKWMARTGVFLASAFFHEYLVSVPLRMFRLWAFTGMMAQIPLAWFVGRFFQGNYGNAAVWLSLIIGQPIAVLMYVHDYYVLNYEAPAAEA
As to the kind of experiment: in vitro DGAT1 inhibition assay (microsomes, [14C]-palmitoyl-CoA, SPA beads).
Method: The in vitro assay to identify DGAT1 inhibitors uses human DGAT1 enzyme expressed in Sf9 insect cells prepared as microsomes. The reaction is initiated by the addition of the combined substrates 1,2-dioleoyl-sn-glycerol and [^14C]-palmitoyl-Co A and incubated with test compounds and microsomal membranes for 2 hours at room temperature. The assay is stopped by adding 0.5 mg wheat germ agglutinin beads in assay buffer with 1% Brij-35 and 1% 3-cholamidopropyldimethyl-ammonio-1-propane sulfonate. Plates are sealed with TopSeal and incubated for 18 hours to allow the radioactive triglyceride product to come into proximity with the bead. Plates are read on a TopCount instrument.
Percent inhibition was calculated as the percent of (test compound inhibition minus non-specific binding) relative to (total binding minus non-specific binding). IC50 values were determined by curve fitting the data to a Sigmoidal dose-response in GraphPad Prism utilizing the following equation: Y=A+(B−A)/(1+10^((Log IC50−X))), where A and B are the bottom and top of the curve (highest and lowest inhibition), respectively, and X is the logarithm of concentration.
For `CCOC(=O)c1nnc2n1CCN(c1ccc(NC(=O)c3oc(N4CCC(c5ccccc5)CC4)nc3C(F)(F)F)cn1)C2` [Compound 216, Ethyl 5,6,7,8-tetrahydro-7-[5-[[[2-(4-phenyl-1-piperidinyl)-4-(trifluoromethyl)-5-oxazolyl]carbonyl]amino]-2-pyridinyl]-1,2,4-triazolo[4,3-a]pyrazine-3-carboxylate], the IC50 (as a rule, the concentration that gives 50% inhibition) lay within 101 to 500 nM.

`CC1CCCN(c2nc(C(F)(F)F)c(C(=O)Nc3ccc(N4CC(NC(=O)Nc5ccccc5F)C4)nc3)o2)C1` (centres unmarked) [Compound 221, N-(6-(3-(3-(2-fluorophenyl)ureido)azetidin-1-yl)pyridin-3-yl)-2-(3-methylpiperidin-1-yl)-4-(trifluoromethyl)oxazole-5-carboxamide] displayed an IC50 of 101 to 500 nM. `CC1CCCN(c2nc(C(F)(F)F)c(C(=O)Nc3ccc(NC4CN(C(=O)Nc5ccccc5F)C4)nc3)o2)C1` (centres unmarked) [Compound 223, N-(6-(1-(2-fluorophenylcarbamoyl)azetidin-3-ylamino)pyridin-3-yl)-2-(3-methylpiperidin-1-yl)-4-(trifluoromethyl)oxazole-5-carboxamide] showed an IC50 of 101 to 500 nM. `O=C(Nc1ccc(N2CCN(C(=O)Cc3ccccc3F)CC2)nc1)c1oc(N2CCC(c3ccccc3)CC2)nc1C(F)(F)F` [Compound 225] displayed an IC50 of 11 to 100 nM.

`O=C(Nc1ccc(N2CCN(C(=O)Cc3ccccc3O)CC2)nc1)c1oc(N2CCC(c3ccccc3)CC2)nc1C(F)(F)F` [Compound 226, N-(6-(4-(2-(2-hydroxyphenyl)acetyl)piperazin-1-yl)pyridin-3-yl)-2-(4-phenylpiperidin-1-yl)-4-(trifluoromethyl)oxazole-5-carboxamide] yielded an IC50 of 101 to 500 nM.

Turning to `O=C(Nc1ccc(N2CCN(C(=O)Cc3c(F)cccc3F)CC2)nc1)c1oc(N2CCC(c3ccccc3)CC2)nc1C(F)(F)F` [Compound 229, N-(6-(4-(2-(2,6-difluorophenyl)acetyl)piperazin-1-yl)pyridin-3-yl)-2-(4-phenylpiperidin-1-yl)-4-(trifluoromethyl)oxazole-5-carboxamide], the IC50 fell in the range of 11 to 100 nM. `Cc1ccccc1NC(=O)c1ccc2c(c1)Cc1cc(NC(=O)c3oc(N4CCCC(C)C4)nc3C(F)(F)F)ccc1-2` (centres unmarked) [Compound 235, 2-(3-methylpiperidin-1-yl)-N-(7-(o-tolylcarbamoyl)-9H-fluoren-2-yl)-4-(trifluoromethyl)oxazole-5-carboxamide]: the half-maximal inhibitory concentration (IC50) was 101 to 500 nM. In turn, `O=C(Nc1ccc(N2CCN(c3nc4ccccc4o3)CC2)nc1)c1oc(N2CCC(c3ccccc3)CC2)nc1C(F)(F)F` [Compound 236] displayed a half-maximal inhibitory concentration (IC50) of 101 to 500 nM. The result for `O=C(Nc1ccc(N2CCN(c3nc4ccccc4[nH]3)CC2)nc1)c1oc(N2CCC(c3ccccc3)CC2)nc1C(F)(F)F` [Compound 237, N-(6-(4-(1H-benzo[d]imidazol-2-yl)piperazin-1-yl)pyridin-3-yl)-2-(4-phenylpiperidin-1-yl)-4-(trifluoromethyl)oxazole-5-carboxamide] reads 101 to 500 nM; that for `O=C(Nc1ccc(N2CCN(C(=O)C3Cc4ccccc4N3)CC2)nc1)c1oc(N2CCC(c3ccccc3)CC2)nc1C(F)(F)F` (centres unmarked) [Compound 240, N-(6-(4-(indoline-2-carbonyl)piperazin-1-yl)pyridin-3-yl)-2-(4-phenylpiperidin-1-yl)-4-(trifluoromethyl)oxazole-5-carboxamide], 101 to 500 nM. The result for `O=C(Nc1ccc(N2CCN(C(=O)C3CCc4ccccc4N3)CC2)nc1)c1oc(N2CCC(c3ccccc3)CC2)nc1C(F)(F)F` (centres unmarked) [Compound 241, 2-(4-phenylpiperidin-1-yl)-N-(6-(4-(1,2,3,4-tetrahydroquinoline-2-carbonyl)piperazin-1-yl)pyridin-3-yl)-4-(trifluoromethyl)oxazole-5-carboxamide] reads 101 to 500 nM; that for `O=C(Nc1ccc(N2CCN(C(=O)C3NCCc4ccccc43)CC2)nc1)c1oc(N2CCC(c3ccccc3)CC2)nc1C(F)(F)F` (centres unmarked) [Compound 242, 2-(4-phenylpiperidin-1-yl)-N-(6-(4-(1,2,3,4-tetrahydroisoquinoline-1-carbonyl)piperazin-1-yl)pyridin-3-yl)-4-(trifluoromethyl)oxazole-5-carboxamide], 101 to 500 nM. As to `O=C(Nc1ccc(N2CCN(C(=O)C3Cc4ccccc4C3)CC2)nc1)c1oc(N2CCC(c3ccccc3)CC2)nc1C(F)(F)F` [Compound 244, N-(6-(4-(2,3-dihydro-1H-indene-2-carbonyl)piperazin-1-yl)pyridin-3-yl)-2-(4-phenylpiperidin-1-yl)-4-(trifluoromethyl)oxazole-5-carboxamide], the IC50 fell in the range of 101 to 500 nM.

`O=C(Nc1ccc(N2CCN(C(=O)Nc3ccccc3F)C(=O)C2)nc1)c1oc(N2CCC(c3ccccc3)CC2)nc1C(F)(F)F` [Compound 248, N-(6-(4-(2-fluorophenylcarbamoyl)-3-oxopiperazin-1-yl)pyridin-3-yl)-2-(4-phenylpiperidin-1-yl)-4-(trifluoromethyl)oxazole-5-carboxamide] gave an IC50 of 101 to 500 nM. Regarding `CC1CCCN(c2nc(C(F)(F)F)c(C(=O)Nc3ccc(N4CCC(OCc5cccc(C(=O)O)c5)CC4)nc3)o2)C1` (centres unmarked) [Compound 254, 3-((1-(5-(2-(3-methylpiperidin-1-yl)-4-(trifluoromethyl)oxazole-5-carboxamido)pyridin-2-yl)piperidin-4-yloxy)methyl)benzoic acid], the IC50 was 11 to 100 nM. The compound `CC1CCCN(c2nc(C(F)(F)F)c(C(=O)Nc3ccc(N4CCC(OCc5ccccc5C(=O)O)CC4)nc3)o2)C1` (centres unmarked) [Compound 255, 2-((1-(5-(2-(3-methylpiperidin-1-yl)-4-(trifluoromethyl)oxazole-5-carboxamido)pyridin-2-yl)piperidin-4-yloxy)methyl)benzoic acid] displayed an IC50 of 11 to 100 nM. Consider `O=C(O)c1cccc(COC2CCN(c3ccc(NC(=O)c4oc(N5CCC(c6ccccc6)CC5)nc4C(F)(F)F)cn3)CC2)c1` [Compound 256, 3-((1-(5-(2-(4-phenylpiperidin-1-yl)-4-(trifluoromethyl)oxazole-5-carboxamido)pyridin-2-yl)piperidin-4-yloxy)methyl)benzoic acid], for which the IC50 is 11 to 100 nM. Compound `O=C(O)c1cccc(OCC2CCN(c3ccc(NC(=O)c4oc(N5CCC(c6ccccc6)CC5)nc4C(F)(F)F)cn3)CC2)c1` [Compound 264, 3-((1-(5-(2-(4-phenylpiperidin-1-yl)-4-(trifluoromethyl)oxazole-5-carboxamido)pyridin-2-yl)piperidin-4-yl)methoxy)benzoic acid] yielded an IC50 of 11 to 100 nM. `O=C(O)c1ccccc1OCC1CCN(c2ccc(NC(=O)c3oc(N4CCC(c5ccccc5)CC4)nc3C(F)(F)F)cn2)CC1` [Compound 266, 2-((1-(5-(2-(4-phenylpiperidin-1-yl)-4-(trifluoromethyl)oxazole-5-carboxamido)pyridin-2-yl)piperidin-4-yl)methoxy)benzoic acid] came in with an IC50 of 101 to 500 nM. In the case of `O=C(O)c1ccc(F)c(OCC2CCN(c3ccc(NC(=O)c4oc(N5CCC(c6ccccc6)CC5)nc4C(F)(F)F)cn3)CC2)c1` [Compound 268, 4-fluoro-3-((1-(5-(2-(4-phenylpiperidin-1-yl)-4-(trifluoromethyl)oxazole-5-carboxamido)pyridin-2-yl)piperidin-4-yl)methoxy)benzoic acid] it was 11 to 100 nM.
